Data as given in patent publication US20240109891A1, “NOVEL SUBSTITUTED TRICYCLIC AZA-HETEROCYCLES AS SOS1 INHIBITORS” (Viva Star Biosciences (Suzhou) Co., Ltd., priority 2021, published 2024).

Tests used:
[1] = biological target: T1, KRAS-WT and SOS1 proteins (Homo sapiens, UniProt Q07889); assay: KRAS-WT/SOS1 binding assay (HTRF); details: Tag1-SOS1 / Tag2-KRAS-WT, 10 μM GTP, read-out: Activity Data in Kras: SOS1 Assay, Wild Type
T1 construct: purchased Cisbio 63ADK000CB15PEG
T1 sequence (Q07889 1-1333): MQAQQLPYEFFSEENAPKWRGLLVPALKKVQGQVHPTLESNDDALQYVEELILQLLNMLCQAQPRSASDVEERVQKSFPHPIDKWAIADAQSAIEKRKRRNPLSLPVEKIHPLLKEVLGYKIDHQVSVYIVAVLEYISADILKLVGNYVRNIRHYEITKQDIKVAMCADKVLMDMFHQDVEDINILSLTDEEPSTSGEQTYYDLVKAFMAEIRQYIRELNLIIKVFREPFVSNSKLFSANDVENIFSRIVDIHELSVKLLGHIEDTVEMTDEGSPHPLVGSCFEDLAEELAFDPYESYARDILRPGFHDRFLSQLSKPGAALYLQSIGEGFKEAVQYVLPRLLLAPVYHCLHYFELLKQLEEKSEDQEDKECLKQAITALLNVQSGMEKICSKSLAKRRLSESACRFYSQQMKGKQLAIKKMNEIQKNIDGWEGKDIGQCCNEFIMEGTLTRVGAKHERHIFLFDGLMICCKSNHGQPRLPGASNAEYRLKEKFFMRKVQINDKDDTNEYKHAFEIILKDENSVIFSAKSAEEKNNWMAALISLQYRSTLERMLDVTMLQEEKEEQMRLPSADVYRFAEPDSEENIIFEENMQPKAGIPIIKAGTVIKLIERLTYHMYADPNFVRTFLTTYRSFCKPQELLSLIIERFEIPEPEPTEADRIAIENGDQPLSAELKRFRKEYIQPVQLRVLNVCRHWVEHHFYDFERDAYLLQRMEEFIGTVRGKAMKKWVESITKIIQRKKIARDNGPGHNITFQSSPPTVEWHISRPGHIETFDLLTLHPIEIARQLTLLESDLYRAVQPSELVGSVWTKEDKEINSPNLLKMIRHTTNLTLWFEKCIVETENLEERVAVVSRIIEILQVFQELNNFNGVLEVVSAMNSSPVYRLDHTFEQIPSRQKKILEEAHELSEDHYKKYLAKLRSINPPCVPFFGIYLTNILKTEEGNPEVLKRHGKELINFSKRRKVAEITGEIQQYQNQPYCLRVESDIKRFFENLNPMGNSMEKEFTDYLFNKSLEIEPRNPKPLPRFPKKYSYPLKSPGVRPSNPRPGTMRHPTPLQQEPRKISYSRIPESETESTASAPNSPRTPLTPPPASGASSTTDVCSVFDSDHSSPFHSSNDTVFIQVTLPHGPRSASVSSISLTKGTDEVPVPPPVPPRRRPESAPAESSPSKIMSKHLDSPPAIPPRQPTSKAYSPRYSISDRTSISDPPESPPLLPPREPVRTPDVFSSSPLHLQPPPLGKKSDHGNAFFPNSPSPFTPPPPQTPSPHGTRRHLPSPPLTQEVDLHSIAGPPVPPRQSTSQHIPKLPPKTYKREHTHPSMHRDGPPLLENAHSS

[2] = biological target: T2, KRAS G12C and SOS1 proteins (Homo sapiens, UniProt Q07889); assay: KRAS-G12C/SOS1 binding assay (HTRF); details: Tag1-SOS1 / Tag2-KRAS G12C, 10 μM GTP
T2 construct: purchased Cisbio 63ADK000CB16PEG
T2 sequence (Q07889 1-1333): T1 sequence (Q07889 1-1333)
Procedure: KRAS-WT (or G12C/G12D/G12V)/SOS1 Binding Assay
Low IC50 values are indicative of high potency of the SOS1 inhibitor compounds in this assay setting.
The KRAS-WT (or G12C/G12D/G12V)/SOS1 binding assay is performed using an assay kit (Cisbio, Cat #63ADK000CB15PEG or 63ADK000CB16PEG/63ADK000CB17PEG/63ADK000CB18PEG) according to the procedure recommended by the manufacturer. • 1) Thaw and prepare the working solution of Tag1-SOS1 protein and Tag2-KRAS-WT (or G12C/G12D/G12V) protein with final concentration of 10 μM GTP (Sigma, Cat #V900868). • 2) Thaw and prepare the working solution of anti-Tag1-Tb^3+ anti-Tag2-XL665. • 3) Dispense 2 μL of serially diluted compound, 4 μL of Tag1-SOS1 protein and 4 μL of Tag2-KRAS-WT (or G12C/G12D/G12V) protein with GTP into a ProxiPlate-384 Plus, white 384-shallow well microplate (PerkinElmer, Cat #6008280). • 4) Incubate the plate for 15 minutes at room temperature. • 5) Dispense 10 μL of pre-mixed anti-Tag1-Tb^3+ and anti-Tag2-XL665 into the plate. • 6) Seal the plate and incubate for 2 hours at room temperature. • 7) Remove the plate sealer and read on PHERAstar FS (BMG LABTECH, PHERAstar FS). • 8) Calculate the ratio of the acceptor and donor emission signals for each individual well using the following equation.
[formula] • 9) IC50 values are fitted and calculated by HTRF signal values and log of compound concentrations to nonlinear regression [Log (inhibitor) vs. Response−Variable Slope (four parameters)] using the GraphPad Prism 8.0.

[3] = biological target: T3, KRAS G12D and SOS1 proteins (Homo sapiens, UniProt Q07889); assay: KRAS-G12D/SOS1 binding assay (HTRF); details: Tag1-SOS1 / Tag2-KRAS G12D, 10 μM GTP
T3 construct: purchased Cisbio 63ADK000CB17PEG
T3 sequence (Q07889 1-1333): T1 sequence (Q07889 1-1333)

SMILES | IC50 [1] [µM] | IC50 [2] [µM] | IC50 [3] [µM]
C[C@@H](Nc1nc2ccnn2c2cc(=O)n(C3CCOCC3)cc12)c1cccc(C(F)(F)CO)c1 [Example 60, (R)-5-((1-(3-(1,1-difluoro-2-hydroxyethyl)phenyl)ethyl)amino)-7-(tetrahydro-2H-pyran-4-yl)pyrazolo[1,5-a]pyrido[3,4-e]pyrimidin-8(7H)-one] | < 0.1 | < 0.1 | < 0.1
Cc1nc(N[C@H](C)c2cccc3c2CCC3(F)F)c2cc(C3CCOCC3)c3nncn3c2n1 [Example 1, N-[(1R)-1-(1,1-difluoro-2,3-dihydro-1H-inden-4-yl)ethyl]-12-methyl-7-(oxan-4-yl)-2,4,5,11,13-pentaazatricyclo[7.4.0.0^{2,6}]trideca-1(9),3,5,7,10,12-hexaen-10-amine] | – | < 0.1 | < 0.1
COc1cc2c(cc1-c1ccc(=O)n(C)c1)c(N[C@H](C)c1cccc3c1CCC3(F)F)nc1ccnn12 [Example 46, (R)-5-(5-((1-(1,1-difluoro-2,3-dihydro-1H-inden-4-yl)ethyl)amino)-8-methoxypyrazolo[1,5-a]quinazolin-7-y1)-1-methylpyridin-2(1H)-one] | < 0.1 | 0.1 to 0.5 | 0.1 to 0.5
COc1cc2c(cc1-c1ccc(=O)n(C)c1)c(N[C@H](C)c1cccc(C(F)(F)CO)c1)nc1ccnn12 [Example 45, (R)-5-(5-((1-(3-(1,1-difluoro-2-hydroxyethyl)phenyl)ethyl)amino)-8-methoxypyrazolo[1,5-a]quinazolin-7-yl)-1-methylpyridin-2(1H)-one] | < 0.1 | 0.1 to 0.5 | < 0.1
COc1cc2c(cc1C1CCOCC1)c(N[C@H](C)c1cccc(C(F)(F)CO)c1)nc1ccnn12 [Example 51, (R)-2,2-difluoro-2-(3-(1-((8-methoxy-7-(tetrahydro-2H-pyran-4-yl)pyrazolo[1,5-a]quinazolin-5-yl)amino)ethyl)phenyl)ethanol] | 0.1 to 0.5 | 0.1 to 0.5 | 0.1 to 0.5
COc1cc2c(cc1C1CCOCC1)c(N[C@H](C)c1cccc(C(F)F)c1F)nc1ccnn12 [Example 47, (R)-N-(1-(3-(difluoromethyl)-2-fluorophenyl)ethyl)-8-methoxy-7-(tetrahydro-2H-pyran-4-yl)pyrazolo[1,5-a]quinazolin-5-amine] | 0.1 to 0.5 | 0.5 to 5 | 0.5 to 5
COc1cc2c(cc1C1=CCOCC1)c(N[C@H](C)c1cccc3c1CCC3(F)F)nc1ccnn12 [Example 49, (R)-N-(1-(1,1-difluoro-2,3-dihydro-1H-inden-4-y1)ethyl)-7-(3,6-dihydro-2H-pyran-4-yl)-8-methoxypyrazolo[1,5-a]quinazolin-5-amine] | – | 0.1 to 0.5 | –
Cc1nc(N[C@H](C)c2cccc(C(F)(F)CO)c2)c2cc(C3CCOCC3)c3nncn3c2n1 [Example 2, (R)-2,2-difluoro-2-(3-(1-((2-methyl-6-(tetrahydro-2H-pyran-4-yl)-[1,2,4]triazolo[4′,3′:1,6]pyrido[2,3-d]pyrimidin-4-yl)amino)ethyl)phenyl)ethanol] | – | < 0.1 | < 0.1
Cc1nc(N[C@H](C)c2cccc(C(F)F)c2F)c2cc(C3CCOCC3)c3nncn3c2n1 [Example 5, (R)-N-(1-(3-(difluoromethyl)-2-fluorophenyl)ethyl)-2-methyl-6-(tetrahydro-2H-pyran-4-yl)-[1,2,4]triazolo[4′,3′:1,6]pyrido[2,3-d]pyrimidin-4-amine] | – | < 0.1 | –
COc1cc2c(cc1C1CCOCC1)c(N[C@H](C)c1cccc3c1CCC3(F)F)nc1ccnn12 [Example 50, (R)-N-(1-(1,1-difluoro-2,3-dihydro-1H-inden-4-yl)ethyl)-8-methoxy-7-(tetrahydro-2H-pyran-4-yl)pyrazolo[1,5-a]quinazolin-5-amine] | – | 0.1 to 0.5 | –
